{"source": "patent US8742082B2", "about": "“Compositions and methods for influencing satiety, lipid metabolism, and fat utilization” (Nestec S.A., priority 2008, dated 2014)", "key": {"[1]": {"settings": "oral, over the 12 first hours; cited from earlier work"}, "[2]": {"tested_on": "Fatty acid transporter/cluster of differentiation 36 (FAT/CD 36)", "test": "Real-time PCR gene expression in peripheral tissues: FAT/CD36", "assay_type": "in vivo", "settings": "C57bl6j mice, high fat diet, 100 mg/kg/body weight in diet, 5 weeks", "method": "(§1) The expression of 45 genes was measured by real-time PCR in peripheral tissues to identify genes that were differentially expressed in response to oral administration of oleoylethanolamide (OEA) or a non-hydrolysable OEA analog (KDS 5104), which affect satiety, lipid metabolism, fat utilization, food intake, and body fat mass.\n(§2) Animals, diet, and experimental design. Adult male C57bl6j mice purchased at 8 weeks of age were individually housed and maintained ad libitum on high fat diet and water for 2 weeks. Seven mice were randomly allocated in 3 groups and fed with a high fat diet (lipids represented 50% of daily energy) for 2 weeks. For one kilogram, the composition of the high fat diet was: 235 g casein, 201 g saccharose, 3.5 g L-cystine, 85 g starch, 116 g maltodextrin, 60 g cellulose, 12 g vitamins mix (AIN-93M, UPAE, Jouy-en-Josas, France), 51.5 g mineral mix (AIN-93Vx, UPAE, Jouy-en-Josas, France), and 236 g lard. Then, either OEA or KDS 5104 was added to the diet at a concentration of 100 mg/kg/body weight. The mice were kept under treatment for 5 weeks.\n(§3) Sampling. At the end of the experimental period, mice were sacrificed by blood drawing (cardiac puncture) after anesthesia with isoflurane. Plasma was obtained by centrifugation (1,000 g for 10 min at 4° C.). Mesenteric, epididymal, inguinal and peritoneal adipose depots, as well as liver, stomach, small intestine mucosa, pancreas, and gastrocnemian muscle were removed and frozen into liquid nitrogen. Plasma, urine, feces, and organ samples were kept at −80° C. until analysis.\n(§4) RNA extraction and gene expression. Total RNA from liver, intestine mucous membrane, adipose tissues, gastrocnemian muscle, pancreas and stomach were extracted with TRIzol reagent (Invitrogen, Carlsbad, USA) according to the manufacturer's instruction. The RNA concentration was determined on nanodrop from the absorbance at 260 nm. Retro-transcription PCRs to synthesize cDNA were performed using an Applied Biosystem Thermal Cycler 2720 and Superscript II (Invitrogen, Carlsbad, USA) according to manufacturer's protocol. Real-time quantitative PCR (RT-qPCR) were performed on cDNA obtained as described above using a high through put system (Biomek 3000, Beckman & Coulter, Fullerton, USA) and a Lightcycler 480 (Roche/Hitachi, Basel, Switzerland) with SYBR Green Master mix+kit (Eurogentec, Philadelphia, USA). Primers for the selected genes were generated using online informatics assistance from the Lightcycler manufacturer (Roche). Databases used to identify the genes were (1) the NCBI database (GenBank) and (2) the IHOP (Information Hyperlinked over Protein) database (www.ihop-net.org/UniPub/iHOP/bng/). Values were expressed as ratio of RNA levels relative to control mice (diets with 0 mg of OEA/kg/body weight) using ΔΔ(Ct) (Livak K J & Schmittgen T D, 2001, Methods 25:402-8). Gene expression of the following genes was measured (abbreviation and GenBank Accession shown in parentheses).\n(§5) Statistical analysis. Results are presented as means±standard error of the means (SEM). Statistical analysis of physiological parameters and gene expression data was performed by one-way ANOVA on Statview software (SAS Institute, Cary, USA). Daily food intake was analyzed using two-way ANOVA on Statview software. Statistical significance was set up at the P<0.05 level, the P<0.01 level and the P<0.001 level. For statistical analysis of the gene expression data, values were calculated relative to 18S expression for each mouse and gene."}, "[3]": {"tested_on": "Stearoyl-Coenzyme A desaturase 1 (SCD 1)", "test": "Real-time PCR gene expression in peripheral tissues: SCD1", "assay_type": "in vivo", "settings": "C57bl6j mice, high fat diet, 100 mg/kg/body weight in diet, 5 weeks", "method": "as §1, §2, §3, §4\nas §5, with “Results are presented as means±standard error of the means (SEM).” left out"}, "[4]": {"target": "G-protein coupled cannabinoid receptor GPR119 (Homo sapiens, UniProt Q8TDV5)", "sequence (Q8TDV5 whole entry)": "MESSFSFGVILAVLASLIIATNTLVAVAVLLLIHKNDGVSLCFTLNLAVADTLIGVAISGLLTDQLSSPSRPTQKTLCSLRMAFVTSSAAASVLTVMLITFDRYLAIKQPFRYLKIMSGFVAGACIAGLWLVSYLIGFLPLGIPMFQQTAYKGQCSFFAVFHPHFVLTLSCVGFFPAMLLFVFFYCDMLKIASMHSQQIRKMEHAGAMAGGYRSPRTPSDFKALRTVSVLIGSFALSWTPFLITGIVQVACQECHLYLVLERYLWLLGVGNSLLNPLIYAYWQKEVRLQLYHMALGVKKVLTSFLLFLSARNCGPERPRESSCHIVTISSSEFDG", "settings": "cited from earlier work"}, "[5]": {"target": "T1, PPAR α (Mus musculus, UniProt P23204)", "T1 construct": "host or cells: wild-type mice (endogenous protein)", "T1 sequence (P23204 whole entry)": "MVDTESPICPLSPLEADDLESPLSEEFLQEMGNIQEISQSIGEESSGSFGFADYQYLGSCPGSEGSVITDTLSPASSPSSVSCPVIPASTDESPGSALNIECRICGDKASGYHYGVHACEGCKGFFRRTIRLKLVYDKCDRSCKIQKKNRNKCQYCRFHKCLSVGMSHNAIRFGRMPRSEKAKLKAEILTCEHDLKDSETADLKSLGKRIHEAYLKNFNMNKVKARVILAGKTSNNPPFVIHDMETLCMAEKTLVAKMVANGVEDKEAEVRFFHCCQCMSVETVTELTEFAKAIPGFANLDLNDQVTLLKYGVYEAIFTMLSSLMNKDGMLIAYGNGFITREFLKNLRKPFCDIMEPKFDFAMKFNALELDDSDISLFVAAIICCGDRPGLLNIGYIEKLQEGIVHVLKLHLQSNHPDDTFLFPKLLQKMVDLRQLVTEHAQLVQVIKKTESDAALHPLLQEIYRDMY", "settings": "wild-type and PPAR α (−/−) mice; cited from earlier work"}, "[6]": {"tested_on": "Peroxisome proliferator activated receptor alpha (PPAR α)", "test": "Real-time PCR gene expression in peripheral tissues: PPAR α", "assay_type": "in vivo", "settings": "proximal intestine; C57bl6j mice, high fat diet, 100 mg/kg/body weight in diet, 5 weeks", "method": "as §1\n(§6) Animals, diet, and experimental design. Adult male C57bl6j mice purchased at 8 weeks of age were individually housed and maintained ad libitum on high fat diet and water for 2 weeks. Seven mice were randomly allocated in 3 groups and fed with a high fat diet (lipids represented 50% of daily energy) for 2 weeks. […]\n(§7) RNA extraction and gene expression. […] The RNA concentration was determined on nanodrop from the absorbance at 260 nm. […] Real-time quantitative PCR (RT-qPCR) were performed on cDNA obtained as described above using a high through put system (Biomek 3000, Beckman & Coulter, Fullerton, USA) and a Lightcycler 480 (Roche/Hitachi, Basel, Switzerland) with SYBR Green Master mix+kit (Eurogentec, Philadelphia, USA). […] Values were expressed as ratio of RNA levels relative to control mice (diets with 0 mg of OEA/kg/body weight) using ΔΔ(Ct) (Livak K J & Schmittgen T D, 2001, Methods 25:402-8). Gene expression of the following genes was measured (abbreviation and GenBank Accession shown in parentheses). […]"}, "[7]": {"tested_on": "AcylCoA oxidase (ACO)", "test": "Real-time PCR gene expression in peripheral tissues: ACO", "assay_type": "in vivo", "settings": "liver; C57bl6j mice, high fat diet, 100 mg/kg/body weight in diet, 5 weeks", "method": "as §1, §6, §7"}, "[8]": {"tested_on": "Glucose 6-phosphatase (G6P)", "test": "Real-time PCR gene expression in peripheral tissues: G6P", "assay_type": "in vivo", "settings": "liver; C57bl6j mice, high fat diet, 100 mg/kg/body weight in diet, 5 weeks", "method": "as §1, §6, §7"}}}
{"smiles": "CCCCCCCC/C=C\\CCCCCCCC(=O)NCCO", "note": "[OEA, N-oleoyl-ethanolamide]", "values": [{"measurement": "food intake after acute gavage", "setting": "[1]", "value": "decrease significantly"}, {"measurement": "FAT/CD36 at ep, ratio of RNA levels relative to control mice", "setting": "[2]; epidydimal adipose tissue", "value": "−1.88"}, {"measurement": "FAT/CD36 l, ratio of RNA levels relative to control mice", "setting": "[2]; liver", "value": 1.45}, {"measurement": "FAT/CD36 at per, ratio of RNA levels relative to control mice", "setting": "[2]; peritoneal adipose tissue", "value": "−1.81"}, {"measurement": "FAT/CD36 i, ratio of RNA levels relative to control mice", "setting": "[2]; proximal intestine", "value": 1.61}, {"measurement": "SCD 1 at ep, ratio of RNA levels relative to control mice", "setting": "[3]; epidydimal adipose tissue", "value": 1.00}, {"measurement": "SCD1 l, ratio of RNA levels relative to control mice", "setting": "[3]; liver", "value": "−2.13"}, {"measurement": "SCD 1 at per, ratio of RNA levels relative to control mice", "setting": "[3]; peritoneal adipose tissue", "value": "−1.30"}, {"measurement": "binding to GPR119", "setting": "[4]", "value": "can also bind"}, {"measurement": "food intake, wild-type vs PPAR α (−/−) mice", "setting": "[5]", "value": "regulates food intake in wild-type mice but not in PPAR α (−/−) mice"}, {"measurement": "PPAR α i, ratio of RNA levels relative to control mice", "setting": "[6]", "value": 1.20}, {"measurement": "ACO l, ratio of RNA levels relative to control mice", "setting": "[7]", "value": 1.06}, {"measurement": "G6P l, ratio of RNA levels relative to control mice", "setting": "[8]", "value": 1.29}]}
